Biological target: Trx-6×His-BCL6 (human BCL6 BTB domain covering amino-acid sequence 5-129) (Homo sapiens (Human), UniProt P41182)
Assay: HTRF in vitro assay (BCL6 / BCOR-AF633 peptide)
Format: binding
Conditions: for activity in the HTRF assay: result in words
Protocol: The % inhibition at each concentration was calculated by normalising FRET ratio to the appropriate high (DMSO with all reagents) and low (DMSO without BCL6) controls.

[1] = further generated data, 1 nM Trx-6×His-BCL6, 300 nM BCOR-AF633 peptide, 0.5 nM anti-6×His-Terbium cryptate
[2] = initially generated data, 10 nM Trx-6×His-BCL6, 300 nM BCOR-AF633 peptide, 1 nM anti-6×His-Terbium cryptate

SMILES | activity in the HTRF assay | HTRF pIC50 [1] | HTRF pIC50 [2]
CN1CCC[C@@H]1Cn1c(=O)n(C)c2ccc(Nc3ccnc(Cl)c3C#N)cc21 [(R)-2-chloro-4-((1-methyl-3-((1-methylpyrrolidin-2-yl)methyl)-2-oxo-2,3-dihydro-1H-benzo[d]imidazol-5-yl)amino)nicotinonitrile] | did not exhibit the desired activity |  | 
Cn1c(=O)n(C[C@@H]2CCCN2CC2CC2)c2cc(Nc3ccnc(Cl)c3C#N)ccc21 [(S)-2-chloro-4-((3-((1-(cyclopropylmethyl)pyrrolidin-2-yl)methyl)-1-methyl-2-oxo-2,3-dihydro-1H-benzo[d]imidazol-5-yl)amino)nicotinonitrile] | did not exhibit the desired activity |  | 
Cn1c(=O)n(C)c2cc(Nc3cc(C(=O)O)nc(Cl)c3C#N)ccc21 [Example 1c, 6-chloro-5-cyano-4-[(1,3-dimethyl-2-oxo-benzimidazol-5-yl)amino]pyridine-2-carboxylic acid] |  | 6.08 | 6.05
CNC(=O)c1cc(Nc2ccc3c(c2)n(CC[C@H](C)n2cccn2)c(=O)n3C)c(C#N)c(Cl)n1 [Example 1d, 6-chloro-5-cyano-N-methyl-4-[[1-methyl-2-oxo-3-[(3S)-3-pyrazol-1-ylbutyl]benzimidazol-5-yl]amino]pyridine-2-carboxamide] |  |  | 6.04
C[C@@H](O)CCn1c(=O)n(C)c2ccc(Nc3cc(C(=O)O)nc(Cl)c3C#N)cc21 [Example 1e, 6-chloro-5-cyano-4-[[3-[(3R)-3-hydroxybutyl]-1-methyl-2-oxo-benzimidazol-5-yl]amino]pyridine-2-carboxylic acid] |  |  | 6.01
CNC(=O)c1cc(Nc2ccc3c(c2)[nH]c(=O)n3C)c(C#N)c(Cl)n1 [Example 1f, 6-chloro-5-cyano-N-methyl-4-[(1-methyl-2-oxo-3H-benzimidazol-5-yl)amino]pyridine-2-carboxamide] |  | 5.59 | 5.84
CNC(=O)c1cc(Nc2ccc3c(c2)n(CCC(C)(C)O)c(=O)n3CC2CCOCC2)c(C#N)c(Cl)n1 [Example 1g, 6-chloro-5-cyano-4-[[3-(3-hydroxy-3-methyl-butyl)-2-oxo-1-(tetrahydropyran-4-ylmethyl)benzimidazol-5-yl]amino]-N-methyl-pyridine-2-carboxamide] |  | 5.95 | 5.82
CCOC(=O)c1cc(Nc2ccc3c(c2)n(CCC(C)(C)O)c(=O)n3C)n2nccc2n1 [Example 1h, Ethyl 7-[[3-(3-hydroxy-3-methyl-butyl)-1-methyl-2-oxo-benzimidazol-5-yl]amino]pyrazolo[1,5-a]pyrimidine-5-carboxylate] |  | 5.94 | 5.79
Cn1c(=O)n(CCC(C)(C)O)c2cc(Nc3ccnc(Cl)c3C#N)ccc21 [Example 1i, 2-chloro-4-[[3-(3-hydroxy-3-methyl-butyl)-1-methyl-2-oxo-benzimidazol-5-yl]amino]pyridine-3-carbonitrile] |  | 6.08 | 5.77
COC(=O)C(C)CCn1c(=O)n(C)c2ccc(Nc3ccnc(Cl)c3C#N)cc21 (stereo not drawn) [Example 1j, Methyl 4-[6-[(2-chloro-3-cyano-4-pyridyl)amino]-3-methyl-2-oxo-benzimidazol-1-yl]-2-methyl-butanoate] |  | 5.78 | 5.67
Cn1c(=O)n(CCC(C)(C)O)c2cc(Nc3ccnc(Br)c3C#N)ccc21 [Example 1k, 2-bromo-4-[[3-(3-hydroxy-3-methyl-butyl)-1-methyl-2-oxo-benzimidazol-5-yl]amino]pyridine-3-carbonitrile] |  | 5.82 | 5.63
Cc1cc(Nc2ccc3c(c2)n(CC[C@@H](C)O)c(=O)n3C)c(C#N)c(Cl)n1 [Example 1l, 2-chloro-4-[[3-[(3R)-3-hydroxybutyl]-1-methyl-2-oxo-benzimidazol-5-yl]amino]-6-methyl-pyridine-3-carbonitrile] |  | 5.53 | 5.62
C[C@@H](O)CCn1c(=O)n(C)c2ccc(Nc3cc(Cl)ncc3Cl)cc21 [Example 1m, 5-[(2,5-dichloro-4-pyridyl)amino]-3-[(3R)-3-hydroxybutyl]-1-methyl-benzimidazol-2-one] |  | 5.47 | 5.62
CCOC(=O)c1cc(Nc2ccc3c(c2)n(CC[C@@H](C)O)c(=O)n3C)n2nccc2n1 [Example 1o, Ethyl 7-[[3-[(3R)-3-hydroxybutyl]-1-methyl-2-oxo-benzimidazol-5-yl]amino]pyrazolo[1,5-a]pyrimidine-5-carboxylate] |  | 5.48 | 5.58
C[C@@H](O)CCn1c(=O)n(C)c2ccc(Nc3ccnc(Cl)c3Cl)cc21 [Example 1q, 5-[(2,3-dichloro-4-pyridyl)amino]-3-[(3R)-3-hydroxybutyl]-1-methyl-benzimidazol-2-one] |  | 5.45 | 5.49
CCOC(=O)c1cc(Nc2ccc3c(c2)n(CC(O)CC)c(=O)n3C)n2ncc(F)c2n1 (stereo not drawn) [Example 1r, Ethyl 3-fluoro-7-((3-(2-hydroxybutyl)-1-methyl-2-oxo-2,3-dihydro-1H-benzo[d]imidazol-5-yl)amino)pyrazolo[1,5-a]pyrimidine-5-carboxylate] |  | 5.91 | 5.39
COC(=O)c1cc(Nc2ccc3c(c2)n(CCC(C)C(=O)OC)c(=O)n3C)c(C#N)c(Cl)n1 (stereo not drawn) [Example 2a, Methyl 6-chloro-5-cyano-4-[[3-(4-methoxy-3-methyl-4-oxo-butyl)-1-methyl-2-oxo-benzimidazol-5-yl]amino]pyridine-2-carboxylate] |  | 6.18 | 6.41
CCOC(=O)c1cc(Nc2ccc3c(c2)n(CCC(C)C(=O)OC)c(=O)n3C)c(C#N)c(Cl)n1 (stereo not drawn) [Example 2b, Ethyl 6-chloro-5-cyano-4-[[3-(4-methoxy-3-methyl-4-oxo-butyl)-1-methyl-2-oxo-benzimidazol-5-yl]amino]pyridine-2-carboxylate] |  | 6.10 | 6.19
COC(=O)C(C)CCn1c(=O)n(C)c2ccc(Nc3cc(C(=O)OC(C)C)nc(Cl)c3C#N)cc21 (stereo not drawn) [Example 2c, Isopropyl 6-chloro-5-cyano-4-[[3-(4-methoxy-3-methyl-4-oxo-butyl)-1-methyl-2-oxo-benzimidazol-5-yl]amino]pyridine-2-carboxylate] |  |  | 6.10
CCOC(=O)c1cc(Nc2ccc3c(c2)n(CC[C@@H](C)O)c(=O)n3C)c(C#N)c(Cl)n1 [Example 2d, Ethyl 6-chloro-5-cyano-4-[[3-[(3R)-3-hydroxybutyl]-1-methyl-2-oxo-benzimidazol-5-yl]amino]pyridine-2-carboxylate] |  | 5.87 | 6.17
COC(=O)C(C)CCn1c(=O)n(C)c2ccc(Nc3cc(C(=O)O)nc(Cl)c3C#N)cc21 (stereo not drawn) [Example 3a, 6-Chloro-5-cyano-4-[[3-(4-methoxy-3-methyl-4-oxo-butyl)-1-methyl-2-oxo-benzimidazol-5-yl]amino]pyridine-2-carboxylic acid] |  | 5.93 | 6.21
COC(=O)C(C)Cn1c(=O)n(C)c2ccc(Nc3ccnc(Cl)c3C#N)cc21 (stereo not drawn) [Example 3b, Methyl 3-[6-[(2-chloro-3-cyano-4-pyridyl)amino]-3-methyl-2-oxo-benzimidazol-1-yl]-2-methyl-propanoate] |  | 5.35 | 5.39
COC(=O)C(C)CCn1c(=O)n(C)c2ccc(Nc3nc(C)ncc3Cl)cc21 (stereo not drawn) [Example 3c, Methyl 4-[6-[(5-chloro-2-methyl-pyrimidin-4-yl)amino]-3-methyl-2-oxo-benzimidazol-1-yl]-2-methyl-butanoate] |  | 5.37 | 5.37
COC(=O)C(C)CCn1c(=O)n(C)c2ccc(Nc3cc(-c4nc(C)no4)nc(Cl)c3C#N)cc21 (stereo not drawn) [Example 5, Methyl 4-[6-[[2-chloro-3-cyano-6-(3-methyl-1,2,4-oxadiazol-5-yl)-4-pyridyl]amino]-3-methyl-2-oxo-benzimidazol-1-yl]-2-methyl-butanoate] |  | 6.19 | 5.99
COC(=O)[C@@H](N)CCn1c(=O)n(C)c2ccc(Nc3ccnc(Cl)c3C#N)cc21 [Example 6, Methyl (2S)-2-amino-4-[6-[(2-chloro-3-cyano-4-pyridyl)amino]-3-methyl-2-oxo-benzimidazol-1-yl]butanoate] |  | 6.00 | 5.97
CNC(=O)c1cc(Nc2ccc3c(c2)n(CCC(C)C(=O)OC)c(=O)n3C)c(C#N)c(Cl)n1 (stereo not drawn) [Example 7a, Methyl 4-[6-[[2-chloro-3-cyano-6-(methylcarbamoyl)-4-pyridyl]amino]-3-methyl-2-oxo-benzimidazol-1-yl]-2-methyl-butanoate] |  | 6.09 | 5.97
C#CCCNC(=O)c1cc(Nc2ccc3c(c2)n(CCC(C)C(=O)OC)c(=O)n3C)c(C#N)c(Cl)n1 (stereo not drawn) [Example 7b, Methyl 4-[6-[[6-(but-3-ynylcarbamoyl)-2-chloro-3-cyano-4-pyridyl]amino]-3-methyl-2-oxo-benzimidazol-1-yl]-2-methyl-butanoate] |  |  | 5.84

Reference: US12110286B2, “Benzimidazolone derived inhibitors of BCL6” (Cancer Research Technology Limited, priority 2017, dated 2024)
